Source: US20130096136A1, “Inhibitors of Protein Tyrosine Kinase Activity” (METHYLGENE INC., priority 2011, published 2013)
pIC50: −log10 of the molar value.

test system: VEGF-dependent phospho ERK1/2 (T202/Y204) in HUVEC cells; assay: VEGF-Dependent Erk Phosphorylation in HUVEC cells; format: cell-based; details: Homo sapiens, 1.5 h compound exposure, VEGF165 150 ng/ml, Western blot densitometry, read-out: P_ERK_IC50_UM
Description: HUVEC cells are purchased from Cambrex Bio Science Walkersville, Inc and cultured according to the vendor's instructions. The full-length coding sequence of VEGF165 is cloned using the Gateway Cloning Technology (Invitrogen) for baculovirus expression Sf9 cells. VEGF165 is purified from conditioned media using a NaCl gradient elution from a HiTrap heparin column (GE Healthcare Life Sciences) followed by an imidazole gradient elution from a HiTrap chelating column (GE Healthcare Life Sciences), then buffer stored in PBS supplemented with 0.1% BSA and filter sterilized
Cells are seeded at 8000 cells/well of a 96 wells plate and grown for 48 hours. Cells are then grown overnight in serum and growth factor-free medium and exposed for 1.5 h to compounds dilutions. Following a 15 min incubation in medium, VEGF165 (150 ng/ml) cells are lysed in ice-cold lysis buffer (50 mM HEPES, pH 7.4, 150 mM NaCl, 1.5 mM MgCl2, 1% Triton X-100, 10% glycerol) containing 1 mM 4-(2 aminoethyl)benzenesulfonyl fluoride hydrochloride, 200 μM sodium orthovanadate, 1 mM sodium fluoride, 10 μg/mL leupeptin, 10 μg/mL aprotinin, 1 μg/mL pepstatin and 50 μg/mL Na-p-tosyl-L-lysine chloromethyl ketone hydrochloride and processed as Western blots to detect anti-phospho ERK1/2 (T202/Y204)(Cell Signaling Technologies). […]

Row | Compound | pIC50
1 | O=C1CCCN1Cc1ccc(-c2cc3nccc(Oc4ccc5oc(NC6CC6)nc5c4)c3s2)nc1 [Compound 47] | 6.92

target: T1, VEGFR2 (KDR) (Homo sapiens, UniProt P35968); assay: In Vitro Receptor Tyrosine Kinase Assay (VEGF receptor KDR), DELFIA; format: biochemical; details: recombinant GST-VEGFR2 806-1356, enzyme 5 nM, ATP 0.6 uM (2x Km), poly(Glu4,Tyr) substrate; read-out: VEGFR_IC50_UM
T1 construct: made in house; host or cells: Sf9 cells (Spodoptera frugiperda), recombinant baculovirus
Description: This test measures the ability of compounds to inhibit the enzymatic activity of recombinant human VEGF receptor enzymatic activity.
A 1.6-kb cDNA corresponding to the catalytic domain of VEGFR2 (KDR) (Genbank accession number AF035121 amino acid 806 to 1356) is cloned into the Pst I site of the pDEST20 Gateway vector (Invitrogen) for the production of a GST-tagged version of that enzyme. This construct is used to generate recombinant baculovirus using the Bac-to-Bac™ system according to the manufacturer's instructions (Invitrogen).
The GST-VEGFR2806-1356 protein is expressed in Sf9 cells (Spodoptera frugiperda) upon infection with recombinant baculovirus construct. Briefly, Sf9 cells grown in suspension and maintained in serum-free medium (Sf900 II supplemented with gentamycin) at a cell density of about 2×10^6 cells/ml are infected with the above-mentioned viruses at a multiplicity of infection (MOI) of 0.1 during 72 hours at 27° C. with agitation at 120 rpm on a rotary shaker. Infected cells are harvested by centrifugation at 398 g for 15 min. Cell pellets are frozen at −80° C. until purification is performed.
All steps described in cell extraction and purification are performed at 4° C. Frozen Sf9 cell pellets infected with the GST-VEGFR2806-1356 recombinant baculovirus are thawed and gently resuspended in Buffer A (PBS pH 7.3 supplemented with 1 μg/ml pepstatin, 2 μg/ml Aprotinin and leupeptin, 50 μg/ml PMSF, 50 μg/ml TLCK and 10 μM E64 and 0.5 mM DTT) using 3 ml of buffer per gram of cells. Suspension is Dounce homogenized and 1% Triton X-100 is added to the homogenate after which it is centrifuged at 22500 g, 30 min., 4° C. The supernatant (cell extract) is used as starting material for purification of GST-VEGFR2806-1356.
The supernatant is loaded onto a GST-agarose column (Sigma) equilibrated with PBS pH 7.3. Following a four column volume (CV) wash with PBS pH 7.3+1% Triton X-100 and 4 CV wash with buffer B (50 mM Tris pH 8.0, 20% glycerol and 100 mM NaCl), bound proteins are step eluted with 5 CV of buffer B supplemented with 5 mM DTT and 15 mM glutathion. GST-VEGFR2806-1356 enriched fractions from this chromatography step are pooled based on U.V. trace i.e. fractions with high O.D.280. Final GST-VEGFR2806-1356 protein preparations concentrations are about 0.7 mg/ml with purity approximating 70%. Purified GST-VEGFR2806-1356 protein stocks are aliquoted and frozen at −80° C. prior to use in enzymatic assay.
Inhibition of VEGFR/KDR is measured in a DELFIA™ assay (Perkin Elmer). The substrate poly(Glu4, Tyr) is immobilized onto black high-binding polystyrene 96-well plates. The coated plates are washed and stored at 4° C. During the assay, the enzyme is pre-incubated with inhibitor and Mg-ATP on ice in polypropylene 96-well plates for 4 minutes, and then transferred to the coated plates. The subsequent kinase reaction takes place at 30° C. for 10-30 minutes. ATP concentrations in the assay are 0.6 uM for VEGFR/KDR (2× the Km). Enzyme concentration is 5 nM. After incubation, the kinase reactions are quenched with EDTA and the plates are washed. Phosphorylated product is detected by incubation with Europium-labeled anti-phosphotyrosine MoAb. After washing the plates, bound MoAb is detected by time-resolved fluorescence in a Gemini SpectraMax reader (Molecular Devices). Compounds are evaluated over a range of concentrations, and IC50 values (concentration of compounds giving 50% inhibition of enzymatic activity) are determined.

T1 sequence (P35968 806-1356): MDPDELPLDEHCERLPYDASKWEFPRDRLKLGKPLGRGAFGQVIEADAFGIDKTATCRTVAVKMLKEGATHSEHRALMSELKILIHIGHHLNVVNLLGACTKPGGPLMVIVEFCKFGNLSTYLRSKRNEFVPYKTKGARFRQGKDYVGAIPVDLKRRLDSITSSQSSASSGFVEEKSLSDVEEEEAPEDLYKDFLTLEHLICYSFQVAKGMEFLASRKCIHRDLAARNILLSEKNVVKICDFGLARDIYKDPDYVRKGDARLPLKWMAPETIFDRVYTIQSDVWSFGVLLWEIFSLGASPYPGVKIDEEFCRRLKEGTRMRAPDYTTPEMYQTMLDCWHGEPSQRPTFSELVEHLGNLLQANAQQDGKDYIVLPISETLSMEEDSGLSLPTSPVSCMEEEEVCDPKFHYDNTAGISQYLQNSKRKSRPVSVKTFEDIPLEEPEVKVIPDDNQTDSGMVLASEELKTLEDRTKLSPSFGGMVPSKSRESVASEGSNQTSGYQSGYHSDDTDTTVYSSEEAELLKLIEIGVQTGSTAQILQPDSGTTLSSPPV

Row | Compound | pIC50
2 | O=C(CO)NC1CCN(Cc2ccc(-c3cc4nccc(Oc5ccc6oc(Nc7ccc(Cl)cc7)nc6c5)c4s3)nc2)CC1 [Compound 12, N-(1-((6-(7-(2-(4-Chlorophenylamino)benzo[d]oxazol-5-yloxy)thieno[3,2-b]pyridin-2-yl)pyridin-3-yl)methyl)piperidin-4-yl)-2-hydroxyacetamide] | 8.22
3 | CCNC(=O)NC1CCN(Cc2ccc(-c3cc4nccc(Oc5ccc6oc(Nc7ccc(Cl)cc7)nc6c5)c4s3)nc2)CC1 [Compound 13] | 8.15
4 | CN(C(=O)CO)C1CCN(Cc2ccc(-c3cc4nccc(Oc5ccc6oc(Nc7ccc(Cl)cc7)nc6c5)c4s3)nc2)CC1 [Compound 14] | 8.30
5 | CCNC(=O)N(C)C1CCN(Cc2ccc(-c3cc4nccc(Oc5ccc6oc(Nc7ccc(Cl)cc7)nc6c5)c4s3)nc2)CC1 [Compound 15] | 8.15
6 | Clc1ccc(Nc2nc3cc(Oc4ccnc5cc(-c6ccc(CNc7cc[nH]n7)cn6)sc45)ccc3o2)cc1 [Compound 17] | 7.38
7 | Clc1ccc(Nc2nc3cc(Oc4ccnc5cc(-c6ccc(CNc7ccc(OCCN8CCOCC8)cc7)cn6)sc45)ccc3o2)cc1 [Compound 18] | 7.64
8 | Clc1ccc(Nc2nc3cc(Oc4ccnc5cc(-c6ccc(CNc7cccc(OCCN8CCOCC8)c7)cn6)sc45)ccc3o2)cc1 [Compound 19] | 7.92
9 | O=C1CCCN1Cc1ccc(-c2cc3nccc(Oc4ccc5oc(NC6CC6)nc5c4)c3s2)nc1 [Compound 47] | 5.81
10 | O=C1CCCN1Cc1ccc(-c2cc3nccc(Oc4ccc5oc(Nc6cccc(Cl)c6)nc5c4)c3s2)nc1 [Compound 49] | 8.70
11 | O=C1CCCN1Cc1ccc(-c2cc3nccc(Oc4ccc5nc(Nc6cccc(Cl)c6)oc5c4)c3s2)nc1 [Compound 50] | 6.36
12 | O=C1CCCN1Cc1ccc(-c2cc3nccc(Oc4ccc5nc(Nc6ccc(Cl)cc6)oc5c4)c3s2)nc1 [Compound 51] | 6.56
13 | O=C1CCCN1Cc1ccc(-c2cc3nccc(Oc4ccc5oc(Nc6ccc(C(F)(F)F)cc6)nc5c4)c3s2)nc1 [Compound 52] | 8.22
14 | CN(C)[C@H]1CCN(C(=O)c2cc3nccc(Oc4ccc5oc(Nc6ccccc6)nc5c4)c3s2)C1 [Compound 61] | 7.72
15 | CC(C)(C)OC(=O)N1CCN(Cc2ccc(-c3cc4nccc(Oc5ccc6oc(Nc7ccc(Cl)cc7)nc6c5)c4s3)nc2)CC1 [Compound 65] | 6.63

Continued by rising pIC50, values first:

Row | pIC50 | Compound
16 | 5.80 | COCCN(Cc1ccc(-c2cc3nccc(Oc4ccc5oc(NC6CC6)nc5c4)c3s2)nc1)C(C)=O [Compound 63]
17 | 6.62 | O=C(c1cc2nccc(Oc3ccc4oc(Nc5ccccc5)nc4c3)c2s1)N1CCCCC1 [Compound 59]
18 | 6.86 | O=C1CCCN1Cc1ccc(-c2cc3nccc(Oc4ccc5oc(Nc6ccccc6Cl)nc5c4)c3s2)nc1 [Compound 54]
19 | 7.33 | COCCN(Cc1ccc(-c2cc3nccc(Oc4ccc5oc(Nc6ccccc6)nc5c4)c3s2)nc1)C(C)=O [Compound 64]
20 | 7.54 | O=C1CCCN1Cc1ccc(-c2cc3nccc(Oc4ccc5oc(Nc6cccc(F)c6)nc5c4)c3s2)nc1 [Compound 56]
21 | 7.74 | O=C1CCCN1Cc1ccc(-c2cc3nccc(Oc4ccc5oc(Nc6ccc(Cl)c(C(F)(F)F)c6)nc5c4)c3s2)nc1 [Compound 57]
22 | 7.80 | CCN(CC)CCNC(=O)c1ccc(NCc2ccc(-c3cc4nccc(Oc5ccc6oc(Nc7ccc(Cl)cc7)nc6c5)c4s3)nc2)cc1 [Compound 16, 4-((6-(7-(2-(4-Chlorophenylamino)benzo[d]oxazol-5-yloxy)thieno[3,2-b]pyridin-2-yl)pyridin-3-yl)methyl)amino-N-(2-(diethylamino)ethyl)benzamide]
23 | 7.85 | O=C1CCCN1Cc1ccc(-c2cc3nccc(Oc4ccc5oc(Nc6ccc(F)cc6)nc5c4)c3s2)nc1 [Compound 55]
24 | 8.10 | CCn1cc(CN(Cc2ccc(-c3cc4nccc(Oc5ccc6oc(Nc7ccc(Cl)cc7)nc6c5)c4s3)nc2)C(C)C)nn1 [Compound 21, N-(4-Chlorophenyl)-5-(2-(5-((((1-ethyl-1H-1,2,3-triazol-4-yl)methyl)(isopropyl)amino)methyl)pyridin-2-yl)thieno[3,2-b]pyridin-7-yloxy)benzo[d]oxazol-2-amine]
25 | 8.30 | O=C1CCCN1Cc1ccc(-c2cc3nccc(Oc4ccc5oc(Nc6ccc(Cl)cc6)nc5c4)c3s2)nc1 [Compound 46, 1-((6-(7-(2-(4-Chlorophenylamino)benzo[d]oxazol-5-yloxy)thieno[3,2-b]pyridin-2-yl)pyridin-3-yl)methyl)pyrrolidin-2-one]
26 | 8.40 | COCCN(Cc1ccc(-c2cc3nccc(Oc4ccc5oc(Nc6ccc(Cl)cc6)nc5c4)c3s2)nc1)C(C)=O [Compound 62]
27 | 8.52 | COc1ccc(Nc2nc3cc(Oc4ccnc5cc(-c6ccc(CN7CCCC7=O)cn6)sc45)ccc3o2)cc1 [Compound 53]
